From PubChem BioAssay (NCI)
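Following 48 hours of exposure in 96-well plates, responses at five concentrations were used to interpolate endpoints linearly. GI50 marks 50% less growth. TGI: concentration producing complete growth inhibition.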

How the values were obtained:
Assay in all cases: NCI anticancer screen, dose series, 48 h
MDA-MB-231 breast = tested on: MDA-MB-231 breast
SK-OV-3 ovarian = tested on: SK-OV-3 ovarian
SK-MEL-2 melanoma = tested on: SK-MEL-2 melanoma
SNB-19 CNS = tested on: SNB-19 CNS
786-0 renal = tested on: 786-0 renal
HL-60(TB) leukemia = tested on: HL-60(TB) leukemia
M14 melanoma = tested on: M14 melanoma
SR leukemia = tested on: SR leukemia
MOLT-4 leukemia = tested on: MOLT-4 leukemia
MCF7 breast = tested on: MCF7 breast
CCRF-CEM leukemia = tested on: CCRF-CEM leukemia
PC-3 prostate = tested on: PC-3 prostate
SK-MEL-28 melanoma = tested on: SK-MEL-28 melanoma
EKVX NSCLC = tested on: EKVX NSCLC
HCT-15 colon = tested on: HCT-15 colon
MALME-3M melanoma = tested on: MALME-3M melanoma
NCI-H23 lung = tested on: NCI-H23 lung
HCC-2998 colon = tested on: HCC-2998 colon
OVCAR-4 ovarian = tested on: OVCAR-4 ovarian
K-562 leukemia = tested on: K-562 leukemia
RPMI-8226 leukemia = tested on: RPMI-8226 leukemia
CAKI-1 renal = tested on: CAKI-1 renal
NCI-H226 lung = tested on: NCI-H226 lung
LOX IMVI melanoma = tested on: LOX IMVI melanoma
UACC-62 melanoma = tested on: UACC-62 melanoma
ACHN renal = tested on: ACHN renal
SF-295 CNS = tested on: SF-295 CNS
HOP-92 NSCLC = tested on: HOP-92 NSCLC
U251 CNS = tested on: U251 CNS
A549 NSCLC = tested on: A549 NSCLC
SNB-75 CNS = tested on: SNB-75 CNS
OVCAR-8 ovarian = tested on: OVCAR-8 ovarian
A498 renal = tested on: A498 renal
RXF 393 renal = tested on: RXF 393 renal
SF-539 CNS = tested on: SF-539 CNS
MDA-MB-435 = tested on: MDA-MB-435
OVCAR-5 ovarian = tested on: OVCAR-5 ovarian
NCI-H460 lung = tested on: NCI-H460 lung
COLO 205 colon = tested on: COLO 205 colon
DU-145 prostate = tested on: DU-145 prostate
HOP-62 NSCLC = tested on: HOP-62 NSCLC
SN12C renal = tested on: SN12C renal
HCT-116 colon = tested on: HCT-116 colon
TK-10 renal = tested on: TK-10 renal
UACC-257 melanoma = tested on: UACC-257 melanoma
NCI/ADR-RES ovarian = tested on: NCI/ADR-RES ovarian
IGROV1 ovarian = tested on: IGROV1 ovarian
HS 578T breast = tested on: HS 578T breast
HT29 colon = tested on: HT29 colon
NCI-H522 lung = tested on: NCI-H522 lung
OVCAR-3 ovarian = tested on: OVCAR-3 ovarian
SK-MEL-5 melanoma = tested on: SK-MEL-5 melanoma
UO-31 renal = tested on: UO-31 renal
SW-620 colon = tested on: SW-620 colon
SF-268 CNS = tested on: SF-268 CNS
BT-549 breast = tested on: BT-549 breast

C=C1C(=O)O[C@@H]2/C=C(/C)C3=CC(=O)[C@@](C)(C[C@H](OC(=O)/C(C)=C\C)[C@@H]12)O3
GI50 (MDA-MB-231 breast): 1700 nM
TGI (MDA-MB-231 breast): 6.99 µM
GI50 (SK-OV-3 ovarian): 10.5 µM
TGI (SK-OV-3 ovarian): > 32.5 µM
GI50 (SK-MEL-2 melanoma): 1300 nM
TGI (SK-MEL-2 melanoma): 7.15 µM
TGI (SNB-19 CNS): > 32.5 µM
GI50 (786-0 renal): 1130 nM
TGI (786-0 renal): 4.13 µM
GI50 (HL-60(TB) leukemia): 911 nM
TGI (HL-60(TB) leukemia): 2400 nM
GI50 (M14 melanoma): 1300 nM
TGI (M14 melanoma): 7.04 µM
GI50 (SR leukemia): 594 nM
TGI (SR leukemia): 3.74 µM
GI50 (MOLT-4 leukemia): 857 nM
TGI (MOLT-4 leukemia): 2880 nM
GI50 (MCF7 breast): 1120 nM
TGI (MCF7 breast): 5.55 µM
GI50 (CCRF-CEM leukemia): 778 nM
TGI (CCRF-CEM leukemia): 2920 nM
GI50 (PC-3 prostate): 4.1 µM
TGI (PC-3 prostate): 12.1 µM
GI50 (SK-MEL-28 melanoma): 1090 nM
TGI (SK-MEL-28 melanoma): 4.6 µM
TGI (EKVX NSCLC): 8.36 µM
GI50 (HCT-15 colon): 661 nM
TGI (HCT-15 colon): 1770 nM
TGI (MALME-3M melanoma): 5.33 µM
GI50 (NCI-H23 lung): 1520 nM
TGI (NCI-H23 lung): 6.54 µM
GI50 (HCC-2998 colon): 4.64 µM
TGI (HCC-2998 colon): 9.07 µM
GI50 (OVCAR-4 ovarian): 1800 nM
TGI (OVCAR-4 ovarian): 6.23 µM
GI50 (K-562 leukemia): 955 nM
TGI (K-562 leukemia): 4.79 µM
GI50 (RPMI-8226 leukemia): 867 nM
TGI (RPMI-8226 leukemia): 2370 nM
GI50 (CAKI-1 renal): 1100 nM
TGI (CAKI-1 renal): 3.8 µM
GI50 (NCI-H226 lung): 1160 nM
TGI (NCI-H226 lung): 4.33 µM
GI50 (LOX IMVI melanoma): 997 nM
TGI (LOX IMVI melanoma): 4.12 µM
GI50 (UACC-62 melanoma): 748 nM
TGI (UACC-62 melanoma): 2400 nM
GI50 (ACHN renal): 658 nM
TGI (ACHN renal): 1430 nM
GI50 (SF-295 CNS): 5.52 µM
TGI (SF-295 CNS): 13.4 µM
GI50 (HOP-92 NSCLC): 1170 nM
TGI (HOP-92 NSCLC): 5.15 µM
GI50 (U251 CNS): 3.37 µM
TGI (U251 CNS): 8.69 µM
GI50 (A549 NSCLC): 6 µM
TGI (A549 NSCLC): 19.8 µM
GI50 (SNB-75 CNS): 2370 nM
TGI (SNB-75 CNS): 27.1 µM
GI50 (OVCAR-8 ovarian): 1000 nM
TGI (OVCAR-8 ovarian): 5.89 µM
TGI (A498 renal): 13.3 µM
GI50 (RXF 393 renal): 648 nM
TGI (RXF 393 renal): 1580 nM
GI50 (SF-539 CNS): 1440 nM
TGI (SF-539 CNS): 6.36 µM
GI50 (MDA-MB-435): 1500 nM
TGI (MDA-MB-435): 10.2 µM
GI50 (OVCAR-5 ovarian): 1670 nM
TGI (OVCAR-5 ovarian): 7.81 µM
GI50 (NCI-H460 lung): 7.04 µM
TGI (NCI-H460 lung): > 32.5 µM
GI50 (COLO 205 colon): 676 nM
TGI (COLO 205 colon): 1570 nM
GI50 (DU-145 prostate): 1500 nM
TGI (DU-145 prostate): 5.58 µM
GI50 (HOP-62 NSCLC): 6.77 µM
TGI (HOP-62 NSCLC): 19.2 µM
TGI (SN12C renal): 12.5 µM
GI50 (HCT-116 colon): 631 nM
TGI (HCT-116 colon): 1490 nM
TGI (TK-10 renal): 1990 nM
GI50 (UACC-257 melanoma): 685 nM
TGI (UACC-257 melanoma): 4.44 µM
GI50 (NCI/ADR-RES ovarian): 1060 nM
TGI (NCI/ADR-RES ovarian): > 32.5 µM
GI50 (IGROV1 ovarian): 3.94 µM
TGI (IGROV1 ovarian): 9.17 µM
GI50 (HS 578T breast): 8.01 µM
TGI (HS 578T breast): > 32.5 µM
GI50 (HT29 colon): 1010 nM
TGI (HT29 colon): 3.71 µM
GI50 (NCI-H522 lung): 545 nM
TGI (NCI-H522 lung): 1210 nM
TGI (OVCAR-3 ovarian): 2840 nM
GI50 (SK-MEL-5 melanoma): 2410 nM
TGI (SK-MEL-5 melanoma): 9.16 µM
GI50 (UO-31 renal): 896 nM
TGI (UO-31 renal): 4 µM
GI50 (SW-620 colon): 946 nM
TGI (SW-620 colon): 2610 nM
GI50 (SF-268 CNS): 5 µM
TGI (SF-268 CNS): 15.4 µM
TGI (BT-549 breast): 5.34 µM
